Test results reported in ChEMBL document CHEMBL5584358, “Fungal Coculture of Herpotrichia sp. and Trametes versicolor Induces Production of Diverse Metabolites with Anti-Parkinson's Neuroprotective Activity” (J Nat Prod, 2024).

How the values were obtained:
PC-12 [1] = assay: Neuroprotective activity against MPP+-induced rat PC12 cell death assessed as upregulation of Tars2 gene expression at 1 to 10 uM preincubated for 1 hr followed by MPP+ addition and measured after 24 hrs by RNA sequencing analysis relative to control; assay type: functional; details: dose 1-10 µM; time 25 hrs
PC-12 [2] = assay: Neuroprotective activity against MPP+-induced rat PC12 cell death assessed as downregulation of Nr3c2 gene expression at 1 to 10 uM preincubated for 1 hr followed by MPP+ addition and measured after 24 hrs by RNA sequencing analysis relative to control; assay type: functional; details: dose 1-10 µM; time 25 hrs
PC-12 [3] = assay: Cytotoxicity against rat PC12 cells assessed as effect on cell viability at 20 uM measured after 24 hrs by CCK-8 assay; assay type: toxicity, cell-based; details: pc-12, 24 h
PC-12 [4] = assay: Neuroprotective activity against MPP+-induced rat PC12 cell death assessed as downregulation of F8 gene expression at 1 to 10 uM preincubated for 1 hr followed by MPP+ addition and measured after 24 hrs by RNA sequencing analysis relative to control; assay type: functional; details: dose 1-10 µM; time 25 hrs
PC-12 [5] = assay: Neuroprotective activity against MPP+-induced rat PC12 cell death assessed as upregulation of Mtr gene expression at 1 to 10 uM preincubated for 1 hr followed by MPP+ addition and measured after 24 hrs by RNA sequencing analysis relative to control; assay type: functional; details: dose 1-10 µM; time 25 hrs
PC-12 [6] = assay: Neuroprotective activity against MPP+-induced rat PC12 cell death assessed as downregulation of Bdnf gene expression at 1 to 10 uM preincubated for 1 hr followed by MPP+ addition and measured after 24 hrs by RNA sequencing analysis relative to control; assay type: functional; details: dose 1-10 µM; time 25 hrs
PC-12 [7] = assay: Neuroprotective activity against MPP+-induced rat PC12 cell death assessed as upregulation of Des gene expression at 1 to 10 uM preincubated for 1 hr followed by MPP+ addition and measured after 24 hrs by RNA sequencing analysis relative to control; assay type: functional; details: dose 1-10 µM; time 25 hrs
PC-12 [8] = assay: Neuroprotective activity against MPP+-induced rat PC12 cell death assessed as upregulation of Ets1 gene expression at 1 to 10 uM preincubated for 1 hr followed by MPP+ addition and measured after 24 hrs by RNA sequencing analysis relative to control; assay type: functional; details: dose 1-10 µM; time 25 hrs
PC-12 [9] = assay: Neuroprotective activity against MPP+-induced rat PC12 cell death assessed as upregulation of Faslg gene expression at 1 to 10 uM preincubated for 1 hr followed by MPP+ addition and measured after 24 hrs by RNA sequencing analysis relative to control; assay type: functional; details: dose 1-10 µM; time 25 hrs
PC-12 [10] = assay: Neuroprotective activity against MPP+-induced rat PC12 cell death assessed as downregulation of Adora1 gene expression at 1 to 10 uM preincubated for 1 hr followed by MPP+ addition and measured after 24 hrs by RNA sequencing analysis relative to control; assay type: functional; details: dose 1-10 µM; time 25 hrs
PC-12 [11] = assay: Neuroprotective activity against MPP+-induced rat PC12 cell death assessed as downregulation of Prorp gene expression at 1 to 10 uM preincubated for 1 hr followed by MPP+ addition and measured after 24 hrs by RNA sequencing analysis relative to control; assay type: functional; details: dose 1-10 µM; time 25 hrs
PC-12 [12] = assay: Neuroprotective activity against MPP+-induced rat PC12 cell death assessed as upregulation of Cyp2d4 gene expression at 1 to 10 uM preincubated for 1 hr followed by MPP+ addition and measured after 24 hrs by RNA sequencing analysis relative to control; assay type: functional; details: dose 1-10 µM; time 25 hrs
PC-12 [13] = assay: Neuroprotective activity against MPP+-induced rat PC12 cell death assessed as downregulation of Tnfrsf10b gene expression at 1 to 10 uM preincubated for 1 hr followed by MPP+ addition and measured after 24 hrs by RNA sequencing analysis relative to control; assay type: functional; details: dose 1-10 µM; time 25 hrs
PC-12 [14] = assay: Neuroprotective activity against MPP+-induced rat PC12 cell death assessed as upregulation of Gpt gene expression at 1 to 10 uM preincubated for 1 hr followed by MPP+ addition and measured after 24 hrs by RNA sequencing analysis relative to control; assay type: functional; details: dose 1-10 µM; time 25 hrs
PC-12 [15] = assay: Neuroprotective activity against MPP+-induced rat PC12 cell death assessed as downregulation of Xiap gene expression at 1 to 10 uM preincubated for 1 hr followed by MPP+ addition and measured after 24 hrs by RNA sequencing analysis relative to control; assay type: functional; details: dose 1-10 µM; time 25 hrs
PC-12 [16] = assay: Neuroprotective activity against MPP+-induced rat PC12 cell death assessed as downregulation of Ifitm3 gene expression at 1 to 10 uM preincubated for 1 hr followed by MPP+ addition and measured after 24 hrs by RNA sequencing analysis relative to control; assay type: functional; details: dose 1-10 µM; time 25 hrs
PC-12 [17] = assay: Neuroprotective activity against MPP+-induced rat PC12 cell death assessed as downregulation of Tnfaip8L2 gene expression at 1 to 10 uM preincubated for 1 hr followed by MPP+ addition and measured after 24 hrs by RNA sequencing analysis relative to control; assay type: functional; details: dose 1-10 µM; time 25 hrs
PC-12 [18] = assay: Neuroprotective activity against MPP+-induced rat PC12 cell death assessed as upregulation of Rps27a gene expression at 1 to 10 uM preincubated for 1 hr followed by MPP+ addition and measured after 24 hrs by RNA sequencing analysis relative to control; assay type: functional; details: dose 1-10 µM; time 25 hrs
PC-12 [19] = assay: Neuroprotective activity against MPP+-induced rat PC12 cell death assessed as upregulation of Tnr gene expression at 1 to 10 uM preincubated for 1 hr followed by MPP+ addition and measured after 24 hrs by RNA sequencing analysis relative to control; assay type: functional; details: dose 1-10 µM; time 25 hrs
PC-12 [20] = assay: Neuroprotective activity against MPP+-induced rat PC12 cell death assessed as upregulation of Bach2 gene expression at 1 to 10 uM preincubated for 1 hr followed by MPP+ addition and measured after 24 hrs by RNA sequencing analysis relative to control; assay type: functional; details: dose 1-10 µM; time 25 hrs
PC-12 [21] = assay: Neuroprotective activity against MPP+-induced rat PC12 cell death assessed as upregulation of Nat1 gene expression at 1 to 10 uM preincubated for 1 hr followed by MPP+ addition and measured after 24 hrs by RNA sequencing analysis relative to control; assay type: functional; details: dose 1-10 µM; time 25 hrs
PC-12 [22] = assay: Neuroprotective activity against MPP+-induced rat PC12 cell death assessed as upregulation of Mmp2 gene expression at 1 to 10 uM preincubated for 1 hr followed by MPP+ addition and measured after 24 hrs by RNA sequencing analysis relative to control; assay type: functional; details: dose 1-10 µM; time 25 hrs
PC-12 [23] = assay: Neuroprotective activity against MPP+-induced rat PC12 cell death assessed as downregulation of Cflar gene expression at 1 to 10 uM preincubated for 1 hr followed by MPP+ addition and measured after 24 hrs by RNA sequencing analysis relative to control; assay type: functional; details: dose 1-10 µM; time 25 hrs
PC-12 [24] = assay: Neuroprotective activity against MPP+-induced rat PC12 cell death assessed as downregulation of IL33 gene expression at 1 to 10 uM preincubated for 1 hr followed by MPP+ addition and measured after 24 hrs by RNA sequencing analysis relative to control; assay type: functional; details: dose 1-10 µM; time 25 hrs
PC-12 [25] = assay: Neuroprotective activity against MPP+-induced rat PC12 cell death assessed as upregulation of Dars2 gene expression at 1 to 10 uM preincubated for 1 hr followed by MPP+ addition and measured after 24 hrs by RNA sequencing analysis relative to control; assay type: functional; details: dose 1-10 µM; time 25 hrs
PC-12 [26] = assay: Neuroprotective activity against MPP+-induced rat PC12 cell death assessed as downregulation of Cdk6 gene expression at 1 to 10 uM preincubated for 1 hr followed by MPP+ addition and measured after 24 hrs by RNA sequencing analysis relative to control; assay type: functional; details: dose 1-10 µM; time 25 hrs

## C=C1CC[C@H]2C(C)(C)[C@@H](O)C[C@@H](O)[C@]2(C)[C@H]1CO
PC-12 [1]
  log2FC: >0.4
PC-12 [2]
  log2FC: >0.4
PC-12 [3]
  Activity: Non-Toxic
PC-12 [4]
  log2FC: >0.4
PC-12 [5]
  log2FC: >0.4
PC-12 [6]
  log2FC: >0.4
PC-12 [7]
  log2FC: >0.4
PC-12 [8]
  log2FC: >0.4
PC-12 [9]
  log2FC: >0.4
PC-12 [10]
  log2FC: >0.4
PC-12 [11]
  log2FC: >0.4
PC-12 [12]
  log2FC: >0.4
PC-12 [13]
  log2FC: >0.4
PC-12 [14]
  log2FC: >0.4
PC-12 [15]
  log2FC: >0.4
PC-12 [16]
  log2FC: >0.4
PC-12 [17]
  log2FC: >0.4
PC-12 [18]
  log2FC: >0.4
PC-12 [19]
  log2FC: >0.4
PC-12 [20]
  log2FC: >0.4
PC-12 [21]
  log2FC: >0.4
PC-12 [22]
  log2FC: >0.4
PC-12 [23]
  log2FC: >0.4
PC-12 [24]
  log2FC: >0.4
PC-12 [25]
  log2FC: >0.4
PC-12 [26]
  log2FC: >0.4
